Publication PMC10388327, “Dual Piperidine-Based Histamine H3 and Sigma-1 Receptor Ligands in the Treatment of Nociceptive and Neuropathic Pain” (Journal of Medicinal Chemistry, 2023)
Where a name gives a salt, the structure may show the parent alone.

Experiments:
CCI-exposed mice = experiment: CCI of the sciatic nerve, tail flick test; format: in vivo, male albino Swiss CD-1 mice
Procedure: Behavioral assessment of 12 was performed 14 days after the sciatic nerve injury. Mice were randomly assigned to four treatment groups: vehicle-treated (i.p.) and 12-treated (5, 10, and 15 mg/kg, i.p.). Baseline measurements (basal) for all tests were performed before compound injections, and the results are presented as percentages of the maximal possible effect (% MPE). We observed a significant effect of the tested compound in the von Frey test at all tested time points (30 min: F(3, 26) = 12.38, p < 0,0001; 90 min: F(3, 26) = 12.65, p < 0.0001; 180 min: F(3, 26) = 6.464, p = 0.0020). […] We also observed a significant effect of treatment on the contralateral paw 90 min after injection (F(3, 26) = 5.741, p = 0.0037).
The model of chronic constriction injury (CCI) to the sciatic nerve was established according to Bennett and Xie.[94] The surgical method was performed under isoflurate anesthesia (2% isoflurane in 100% oxygen with a flow of 1.5 L/min).[95] […]
Tail flick latency was measured on the dorsal part of the tail at two-thirds of its length by applying a focused beam of light (thermal stimulus). The time interval between onset of the thermal stimulus and withdrawal of the tail from the beam was recorded; the cutoff latency was 9 s to prevent tissue damage.

mice = experiment: loperamide-induced antinociception (paw pressure, struggle response latency); format: in vivo, Female CD1 mice

N#Cc1ccc(-c2ccc(OCCCN3CCC(c4ccncc4)CC3)cc2)cc1 [Compound 12, 4′-(3-(4-(Pyridin-4-yl)piperidin-1-yl)propoxy)-[1,1′-biphenyl]-4-carbonitrile Oxalate]
analgesic effect, tail flick test (CCI-exposed mice; 100 and 190 min after i.p. injection): only the 10 mg/kg dose had significant analgesic effects
analgesic effect, tail flick test (CCI-exposed mice; 40 min after i.p. injection): significant analgesic action of 12 at 40 min (for doses 5 (p = 0.021) and 10 mg/kg (p < 0.0001))
in vivo σ1 receptor functional profile (mice; concluded from PRE-084 reversal): σ1 receptor antagonists
effect on loperamide-induced antinociception (mice; i.pl. with loperamide 4 mg/kg s.c., injected paw): dose-dependently (12.5–25 μg) increased the antinociceptive effect of loperamide at the injected paw
effect alone on struggle response latency (mice; i.pl., S1RA 100 μg, 12 25 μg, 450 g pressure): did not have any effect per se
